“And” between values parts separate entries of the source, which are not always exact repeats. Identical values can stand only once.
Tests used:
[1] = tested on: male SD rats; test: Acute toxicity test on rats; details: for Observation of clinical symptoms 0.5 h / Observation of clinical symptoms 1 h / Observation of clinical symptoms 2 h / Observation of clinical symptoms 4 h / Observation of clinical symptoms 6 h / Observation of clinical symptoms 24 h: per animal
Method: After adapting to the environment for one week, the SD rats were used in a preliminary acute toxicity test. The compounds were newly formulated on the day of the test. […] After being labeled and weighed, the animals were randomly grouped with 2-4 animals in each group. […] Clinical symptoms of each animal were observed and recorded at 0.5 hours, 1 hour, 2 hours, 4 hours, 6 hours and 24 hours after the administration, respectively. Clinical symptom codes were as follows: 0 no abnormality, 1 mild tremor, 2 unsteady gait, 3 prone position, 4 startle reflex, 5 difficult breathing, 6 righting reflex disappeared, 7 eyelid closure, 8 shortness of breath, and x animal death.

[2] = tested on: postherpetic neuralgia; details: 150-600 mg per day; cited from earlier work
[3] = biological target: T1, human recombinant calcium ion channel Cav2.2/β3/α2δ-1 (Homo sapiens, UniProt P54289); test: In vitro binding to human recombinant calcium ion channel Cav2.2/β3/α2δ-1 ([3H]gabapentin competition)
T1 construct: expressed in transfected cells; host or cells: CHO cells (membranes)
Text: Example 28 In Vitro Binding of Compounds to Human Recombinant Calcium Ion Channel Cav2.2/β3/α2δ-1
There are four subtypes of the voltage-gated calcium ion channel α2δ subunit, α2δ-1, α2δ-2, α2δ-3 and α2δ-4, in which α2δ-1 is the subtype that mediates chronic neuropathic pain (Field, M. J. et al.; Proc. Natl. Acad. Sci. U.S.A. 2006, 103, 17537-17542). Therefore, the binding strength of a compound to α2δ-1 is a direct indicator for measuring an analgesic effect thereof on the chronic neuropathic pain (Calandre, E. P. et al.; Expert Rev. Neuroether. 2016, 16, 1263-1277).
The in vitro binding strength of the compound of the present application to human recombinant calcium ion channel Cav2.2/β3/α2δ-1 is basically operated according to a reported method (Gee, N. S. et al.; J. Biol. Chem. 1996, 271, 5768-5776; Marais, E. et al.; Mol. Pharmacol. 2001, 59, 1243-1248). CHO cells expressing the human recombinant calcium ion channel Cav2.2/β3/α2δ-1 were used in the test. After routine separation of cell membranes, 3 μg of the cell membranes were added into each well with a modified HEPES/KOH buffer solution (pH 7.4) as a solution of the test system. Then, 5 nM [^3H]gabapentin and the compound to be tested at 6 concentrations (3, 9, 27, 81, 243, and 729 nM) were added, and the test system was incubated at 25° C. for 120 min. Non-specific binding was obtained by replacing the compound to be tested in the above test system with […] gabapentin. After the incubation was completed, the cell membranes were collected by filtration and washed with 50 mM Tris-HCl (pH 7.4), and then the radioactivity of [^3H]gabapentin bound to the cell membranes was tested by a liquid scintillation technology. […] An inhibition rate of the compound of the present application on the binding of the [^3H]gabapentin to the human recombinant calcium ion channel Cav2.2/β3/α2δ-1 was calculated according to the following formula: […]
wherein • I is the radioactivity corresponding to that the compound to be tested and [^3H]gabapentin are simultaneously co-incubated with the human recombinant calcium ion channel Cav2.2/β3/α2δ-1, • I0 is the radioactivity corresponding to co-incubation of [^3H]gabapentin and the human recombinant calcium ion channel Cav2.2/β3/α2δ-1 without adding the compound to be tested into the incubation system, and • IU is the radioactivity corresponding to that 10 μM gabapentin and [^3H]gabapentin are simultaneously co-incubated with the human recombinant calcium ion channel Cav2.2/β3/α2δ-1.
The concentration of the compound to be tested that inhibits 50% of the binding of [^3H]gabapentin to the human recombinant calcium ion channel Cav2.2/β3/α2δ-1 is defined as IC50, and the IC50 is calculated by nonlinear least squares regression analysis using the above inhibition rate (MathIQ™, ID Business Solutions Ltd., UK).

[4] = oral gavage 163.8 mg/kg (calculated by free base)
[5] = oral gavage 300 mg/kg (calculated by free base)

T1 sequence (P54289 25-956 limits assumed): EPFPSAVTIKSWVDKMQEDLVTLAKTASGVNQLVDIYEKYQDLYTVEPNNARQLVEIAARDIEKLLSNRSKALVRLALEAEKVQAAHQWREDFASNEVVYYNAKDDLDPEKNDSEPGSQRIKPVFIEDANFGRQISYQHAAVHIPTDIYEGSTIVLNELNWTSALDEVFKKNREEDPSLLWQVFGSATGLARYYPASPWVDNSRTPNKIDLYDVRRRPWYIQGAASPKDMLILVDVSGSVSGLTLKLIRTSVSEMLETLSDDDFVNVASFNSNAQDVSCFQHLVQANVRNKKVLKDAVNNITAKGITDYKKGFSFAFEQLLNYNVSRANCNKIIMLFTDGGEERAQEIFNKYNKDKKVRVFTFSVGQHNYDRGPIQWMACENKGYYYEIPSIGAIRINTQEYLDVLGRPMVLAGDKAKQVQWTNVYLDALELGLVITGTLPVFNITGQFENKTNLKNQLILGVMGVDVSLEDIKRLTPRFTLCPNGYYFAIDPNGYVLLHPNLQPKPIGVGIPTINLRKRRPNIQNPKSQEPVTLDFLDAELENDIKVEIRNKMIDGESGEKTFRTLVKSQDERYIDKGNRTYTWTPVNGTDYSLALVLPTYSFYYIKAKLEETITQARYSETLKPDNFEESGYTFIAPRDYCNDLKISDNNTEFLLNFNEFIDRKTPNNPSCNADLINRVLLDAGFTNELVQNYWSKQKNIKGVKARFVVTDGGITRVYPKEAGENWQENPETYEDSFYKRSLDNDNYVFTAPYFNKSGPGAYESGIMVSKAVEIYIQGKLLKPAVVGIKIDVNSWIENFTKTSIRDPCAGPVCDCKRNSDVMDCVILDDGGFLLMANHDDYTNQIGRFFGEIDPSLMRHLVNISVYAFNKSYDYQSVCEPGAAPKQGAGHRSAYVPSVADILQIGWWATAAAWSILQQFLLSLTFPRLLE
T1 sequence (P54289 957-1103 partner limits assumed): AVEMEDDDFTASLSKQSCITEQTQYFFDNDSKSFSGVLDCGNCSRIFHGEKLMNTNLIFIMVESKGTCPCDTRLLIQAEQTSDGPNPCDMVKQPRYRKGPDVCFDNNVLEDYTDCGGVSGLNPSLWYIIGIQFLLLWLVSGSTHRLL
T1 sequence (Q00975 whole entry partner): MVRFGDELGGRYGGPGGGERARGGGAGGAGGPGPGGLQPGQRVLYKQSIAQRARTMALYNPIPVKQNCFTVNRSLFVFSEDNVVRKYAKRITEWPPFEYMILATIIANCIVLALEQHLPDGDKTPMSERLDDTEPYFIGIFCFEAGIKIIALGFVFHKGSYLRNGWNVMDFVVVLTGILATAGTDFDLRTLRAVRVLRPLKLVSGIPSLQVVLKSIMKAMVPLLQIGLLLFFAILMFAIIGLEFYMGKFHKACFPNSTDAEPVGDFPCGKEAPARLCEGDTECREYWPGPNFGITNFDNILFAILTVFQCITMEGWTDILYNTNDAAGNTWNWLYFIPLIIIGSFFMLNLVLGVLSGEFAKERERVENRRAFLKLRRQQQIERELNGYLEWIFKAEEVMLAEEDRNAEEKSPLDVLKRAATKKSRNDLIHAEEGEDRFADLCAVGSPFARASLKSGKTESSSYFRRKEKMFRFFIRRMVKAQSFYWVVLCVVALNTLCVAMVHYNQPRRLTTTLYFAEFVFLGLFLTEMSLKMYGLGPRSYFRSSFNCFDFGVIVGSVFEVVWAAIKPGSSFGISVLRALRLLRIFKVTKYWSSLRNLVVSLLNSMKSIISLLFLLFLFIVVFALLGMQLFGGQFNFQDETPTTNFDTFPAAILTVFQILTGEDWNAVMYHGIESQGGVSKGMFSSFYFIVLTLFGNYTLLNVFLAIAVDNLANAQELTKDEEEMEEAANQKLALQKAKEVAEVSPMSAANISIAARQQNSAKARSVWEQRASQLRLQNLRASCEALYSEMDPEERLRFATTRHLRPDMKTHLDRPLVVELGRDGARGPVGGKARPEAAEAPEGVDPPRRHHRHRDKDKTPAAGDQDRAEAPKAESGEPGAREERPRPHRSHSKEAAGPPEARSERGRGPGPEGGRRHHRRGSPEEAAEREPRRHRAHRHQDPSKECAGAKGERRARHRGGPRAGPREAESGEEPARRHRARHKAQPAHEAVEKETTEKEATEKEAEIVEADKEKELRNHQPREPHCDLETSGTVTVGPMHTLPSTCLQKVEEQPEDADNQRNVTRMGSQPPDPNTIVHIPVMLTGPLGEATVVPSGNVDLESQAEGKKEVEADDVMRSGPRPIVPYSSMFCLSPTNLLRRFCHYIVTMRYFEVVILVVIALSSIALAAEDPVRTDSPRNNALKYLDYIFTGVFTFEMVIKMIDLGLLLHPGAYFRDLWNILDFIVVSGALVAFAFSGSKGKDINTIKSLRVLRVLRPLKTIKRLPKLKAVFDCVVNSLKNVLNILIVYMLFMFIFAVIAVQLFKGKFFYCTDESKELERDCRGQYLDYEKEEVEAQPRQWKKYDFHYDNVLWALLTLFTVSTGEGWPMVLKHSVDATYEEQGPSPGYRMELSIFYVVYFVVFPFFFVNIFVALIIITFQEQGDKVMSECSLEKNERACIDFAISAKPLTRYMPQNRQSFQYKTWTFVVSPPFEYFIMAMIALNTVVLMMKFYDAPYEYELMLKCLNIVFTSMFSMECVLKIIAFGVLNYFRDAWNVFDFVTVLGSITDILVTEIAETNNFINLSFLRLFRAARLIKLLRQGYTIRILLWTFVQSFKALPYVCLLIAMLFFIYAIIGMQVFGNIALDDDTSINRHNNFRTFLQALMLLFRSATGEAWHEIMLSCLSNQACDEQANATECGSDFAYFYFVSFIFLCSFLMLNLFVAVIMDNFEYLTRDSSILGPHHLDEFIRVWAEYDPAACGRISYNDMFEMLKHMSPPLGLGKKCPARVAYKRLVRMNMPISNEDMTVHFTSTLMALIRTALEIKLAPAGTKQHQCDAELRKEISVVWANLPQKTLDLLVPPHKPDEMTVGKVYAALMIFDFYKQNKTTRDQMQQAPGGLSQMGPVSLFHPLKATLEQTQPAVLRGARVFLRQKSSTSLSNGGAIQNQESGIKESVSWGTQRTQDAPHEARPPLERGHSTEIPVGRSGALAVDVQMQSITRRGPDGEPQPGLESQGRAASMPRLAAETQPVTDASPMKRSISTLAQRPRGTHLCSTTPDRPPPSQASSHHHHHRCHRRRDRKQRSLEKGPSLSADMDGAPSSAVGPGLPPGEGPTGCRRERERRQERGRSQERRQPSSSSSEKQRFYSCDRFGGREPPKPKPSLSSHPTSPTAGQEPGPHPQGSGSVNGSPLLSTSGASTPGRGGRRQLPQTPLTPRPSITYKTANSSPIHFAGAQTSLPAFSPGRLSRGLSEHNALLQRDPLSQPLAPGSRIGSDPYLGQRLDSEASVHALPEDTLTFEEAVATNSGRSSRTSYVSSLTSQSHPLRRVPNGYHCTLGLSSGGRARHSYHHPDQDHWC
T1 sequence (P54284 whole entry partner): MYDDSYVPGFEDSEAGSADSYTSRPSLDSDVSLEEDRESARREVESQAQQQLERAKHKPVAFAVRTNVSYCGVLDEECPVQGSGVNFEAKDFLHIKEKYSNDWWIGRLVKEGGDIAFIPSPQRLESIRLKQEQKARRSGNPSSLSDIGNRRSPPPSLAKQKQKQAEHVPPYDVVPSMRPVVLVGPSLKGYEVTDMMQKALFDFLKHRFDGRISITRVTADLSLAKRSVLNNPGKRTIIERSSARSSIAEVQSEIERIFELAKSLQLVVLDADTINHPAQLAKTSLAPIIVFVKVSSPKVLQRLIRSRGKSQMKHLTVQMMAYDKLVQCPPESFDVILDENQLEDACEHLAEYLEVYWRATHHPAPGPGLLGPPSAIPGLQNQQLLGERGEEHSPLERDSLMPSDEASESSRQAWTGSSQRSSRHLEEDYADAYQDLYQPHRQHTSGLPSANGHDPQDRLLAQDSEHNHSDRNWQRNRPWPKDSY

Cc1ccc(S(=O)(=O)O)cc1.NCC1(CC(=O)O)CC2C3C=CC(C3)C21 (single isomer, unassigned; (+)) [(+)-I-4 p-toluenesulfonate]
abnormal behaviors at 0-24 h after the administration [1, 4]: no obvious abnormal behaviors | Observation of clinical symptoms 0.5 h [1, 4]: 0 | Observation of clinical symptoms 1 h [1, 4]: 0 | Observation of clinical symptoms 2 h [1, 4]: 0 | Observation of clinical symptoms 4 h [1, 4]: 0 | Observation of clinical symptoms 6 h [1, 4]: 0 | Observation of clinical symptoms 24 h [1, 4]: 0 | animal death [1, 5]: no animals are dead | Observation of clinical symptoms 0.5 h [1, 5]: 0 | Observation of clinical symptoms 1 h [1, 5]: 3 | Observation of clinical symptoms 2 h [1, 5]: 0 | Observation of clinical symptoms 6 h [1, 5]: 0 | Observation of clinical symptoms 24 h [1, 5]: 0 | Observation of clinical symptoms 4 h ([1]; oral gavage 300 mg/kg (calculated by free base), 300 mg/kg): 3 and 0

CC(C)C[C@H](CN)CC(=O)O [Pregabalin]
clinical effective rate [2]: 26%-50 | IC50 [3]: 38 nM
